The values that follow are results of earlier work, collected in patent US7271001B2, “Method for mitochondrial targeting of p53” (The Research Foundation of State University of New York, priority 2004, dated 2007).

For series [1], the system named is tumor-derived p53 mutant proteins. The conditions noted are these: cell-based assays in vitro.
The test system of the next series is tumor xenografts. The conditions noted are these: tumor xenografts in nude mice.

Turning to `COc1ccc(/C=C/c2nc(NCCCN(C)C)c3ccccc3n2)cc1` [CP-31398], the “restoration of transcriptional p53 function” value in series [1] was “can restore transcriptional p53 function”. Moreover, in the series with tumor xenografts, the tumor growth result is “slow tumor growth”.

Regarding `O=C1C2CCN(CC2)C1(CO)CO` [PRIMA-1], the “restoration of transcriptional p53 function” value in series [1] is “can restore transcriptional p53 function”. The tumor growth entry in the series with tumor xenografts is reported as “slow tumor growth”.
